Source: patent US8247407B2, priority 2007, dated 2012)
Structures can show the parent of a compound that is named as a salt.

Tested on: rats with alloxan diabetes
Experiment: Hypoglycemic activity, alloxan diabetes model in rats (Example 1)
Format: in vivo, rat
Procedure: The pharmaceutical compositions for determination of anti-diabetic action had the following composition: active compound—1 g, potato starch—1 g, water—100 ml.
The comparison of anti-diabetic action of compounds was carried out using a standard model of alloxan diabetes and metmorphin as a comparative drug. The alloxan diabetes was induced by a single subcutaneous injection of water solution of alloxan hydrate (ICN Biomedicals, USA) at a dose of 150 mg/kg to rats weighting 180-200 g that have fasted for 24 hours. The following animal groups were studied: intact rats, diabetic non-treated rats, diabetic rats receiving Polfa-Kutno Ltd.″ metmorphin daily (for 23 days, 200 mg/kg); diabetic rats receiving daily (for 20 days) the abovementioned pharmaceutical compositions containing, as an active components, the compounds described in this invention: MC-200-MC-225. The compounds were administered intragastrically once a day in starch gel at a dose of 50 mg/kg rat weight.
The experimental drug doses were selected assuming the expected therapeutic doses for man and previously determined toxic doses (LD50 of studied compounds was approximately 500-1,000 mg/kg). The metmorphin dose for rats was extrapolated from the therapeutic dose for man. Drug administration was started on the third day after alloxan injection when blood glucose level increased approximately 3-fold as compared to control value. Each group consisted of 20 animals of both genders.

[1] = diabetic rats' blood, in 10 days, compounds 50 mg/kg intragastrically once a day in starch gel, metmorphin 200 mg/kg daily
[2] = diabetic rats' blood, in 20 days, compounds 50 mg/kg intragastrically once a day in starch gel, metmorphin 200 mg/kg daily

Compound	Glucose content, mmol/l, in 10 days [1] [mmol/L]	Glucose content, mmol/l, in 20 days [2] [mmol/L]	Glucose content, mmol/l, in 10 days (rat, in vivo) [mmol/L]	Glucose content, mmol/l, in 20 days (rat, in vivo) [mmol/L]
CCOC(=O)c1c(C[S+]([O-])c2ccccc2)n(C)c2cc(Br)c(O)c(CN(C)C)c12 (stereo not shown) [MC-223, 1-methyl-2-phenylsulfinylmethyl-3-carbethoxy-4-dimethylaminomethyl-5-hydroxy-6-bromoindole]	8.4 ± 0.6	8.2 ± 0.6	–	–
CCOC(=O)c1c(CSc2ccc(CC)cc2)n(C)c2cc(Br)c(O)c(CN(C)C)c12 [MC-202, 1-methyl-2-(p-ethyl)-phenyl-thiomethyl-3-carbethoxy-4-dimethylaminomethyl-5-hydroxy-6-bromoindole]	7.3 ± 0.5	7.0 ± 0.4	–	–
CCOC(=O)c1c(CSc2ccccc2)n(C)c2cc(-c3cccnc3)c(O)c(CN(C)C)c12 [MC-215, 1-methyl-2-phenylthiomethyl-3-carbethoxy-4-dimethylaminomethyl-5-hydroxy-6-pyridinyl-3 indole]	5.6 ± 0.2	5.4 ± 0.3	–	–
CCOC(=O)c1c(CSCc2ccccc2)n(C2CC2)c2cc(Br)c(O)c(CNC(=N)N)c12 [MC-219, 1-cyclopropyl-2-benzylthiomethyl-3-carbethoxy-4-guanidinomethyl-5-hydroxy-6-bromoindole]	–	–	9.3 ± 0.6	9.0 ± 0.5
CCOC(=O)c1c(CS(=O)(=O)c2ccccc2)n(C)c2cc(Br)c(O)c(CN(C)C)c12 [MC-222, 1-methyl-2-phenylsulfonylmethyl-3-carbethoxy-4-dimethylaminomethyl-5-hydroxy-6-bromoindole]	6.4 ± 0.3	6.2 ± 0.3	–	–
CCOC(=O)c1c(C[S+]([O-])Cc2ccc(F)c(F)c2)n(C2CC2)c2cc(Br)c(O)c(CN3CCN(C)CC3)c12 (stereo not shown) [MC-221, 1-cyclopropyl-2-(3,4-difluor)benzylsulfinyl-methyl-3-carbethoxy-4-(N-methyl)-piperazinomethyl-5-hydroxy-6-bromoindole dihydrochloride]	7.3 ± 0.4	7.2 ± 0.4	–	–
CCOC(=O)c1c(CSc2ccc(C)cc2)n(C)c2cc(Br)c(O)c(CN(C)C)c12 [MC-201, 1-methyl-2-p-toluilthiomethyl-3-carbethoxy-4-dimethyl-aminomethyl-5-hydroxy-6-bromoindole]	6.4 ± 0.4	6.2 ± 0.3	–	–
CCOC(=O)c1c(CN2CCCC2)n(C)c2cc(-c3cccnc3)c(O)c(CN(C)C)c12 [MC-212, 1-methyl-2-pyrrolidinomethyl-3-carbethoxy-4-dimethylaminomethyl-5-hydroxy-6-(pyridine-3-yl)indole trihydrochloride]	5.2 ± 0.3	5.1 ± 0.3	–	–
CCOC(=O)c1c(C[S+]([O-])Cc2ccc(F)cc2)n(C)c2cc(Br)c(O)c(CN3CCOCC3)c12 (stereo not shown) [MC-220, 1-methyl-2-(p-fluor)-benzylsulfinylmethyl-3-carbethoxy-4--4-morpholinomethyl-5-hydroxy-6-bromoindole hydrochloride]	5.9 ± 0.2	5.8 ± 0.2	–	–
CCOC(=O)c1c(CSc2ccccc2)n(C)c2cc(C#N)c(O)c(CN(C)C)c12 [MC-216, 1-methyl-2-phenylthiomethyl-3-carbethoxy-4-dimethylaminomethyl-5-hydroxy-6-cyano indole]	8.4 ± 0.4	8.1 ± 0.4	–	–
CCOC(=O)c1c(CSc2ccccc2)n(Cc2ccccc2)c2cc(Br)c(O)c(CN(C)C)c12 [MC-205, 1-benzyl-2-phenylthiomethyl-3-carbethoxy-4-dimethylaminomethyl-5-hydroxy-6-bromoindole]	8.4 ± 0.6	8.1 ± 0.5	–	–
